From patent US20240100068A1, “METHODS COMPRISING ADMINISTRATION OF A GLUCOCORTICOID RECEPTOR AGONIST AND AN INHIBITOR OF CALCINEURIN” (Chengdu Anticancer Bioscience, Ltd., priority 2022, published 2024)
Like-named read-outs stand apart in the source and are kept apart here.

Tested on: T2MycNick cells
Assay: Testing compounds for their ability of restoring contact inhibition (vacuolation, cell density)
Type: cell-based, murine
Conditions: for minimal effective concentration: T2MycNick cells grown beyond confluence, 7-14 days; for cell density reduction (in words) / vacuolation (in words): compound alone; for vacuolation (in words): up to 10 μM
[1] = Mus musculus, PI staining, read-out: Conc that reduces > 50% in the cell density
[2] = Mus musculus, vacuolation covering no less than 10% of a random field, read-out: Min. effective conc. that elicits vacuolation
[3] = PI staining, read-out: Conc that reduces > 50% in the cell density
[4] = vacuolation covering no less than 10% of a random field, read-out: Min. effective conc. that elicits vacuolation

Protocol: Exponentially growing MycNick cells were passaged into 24-well plates at a final confluence of 90% and were allowed to attach for 48 hours before being exposed to a cortisol analog in the presence or absence of a calcineurin inhibitor. After the initiation of treatment, the cells were allowed to grow beyond confluence for 7 days before being subjected to morphological analysis and cell density. An inverted tissue culture microscope (Leica) was used to document vacuoles in live cells. Cell density was evaluated under an EVOS FL Auto microscope (Thermo Fisher) after fixation of the treated cells with 4% paraformaldehyde (PFA) in the presence of detergent 0.5% Triton X-100 and subsequently staining of DNA with 5 μg/ml of Propidium Iodide (PI) in the presence of 5 μg/ml of Ribonuclease A from bovine pancreas (RNase A) (Sigma, Cat. # R6513-50MG).
The threshold concentration that was used to elicit no less than 50% of reduction in the cell density was determined. So was the minimal effective concentration that could induce vacuolation to an extent that covered no less than 10% of a random field documented under a bright field microscope. Quantification of the area with vacuolation, multilayer zones or multilayer zones was performed with the Image J software. More than 10 random fields were chosen for quantification for each data point in each of two independent experiments.
Exponentially growing murine cells expressing Myc-Nick (T2MycNick cells) were passaged into 24-well plates at a final confluence of 20% and were allowed to attach overnight before being exposed to a test compound at a concentration of 10 μM. […] The cells were subjected to daily analysis of viability and morphology under an inverted tissue culture microscope or GE InCell Analyzer 2000. Cell density was documented after staining of DNA with PI 7-10 days after the initiation of treatment.

Compound: CCC(=O)OCC(=O)[C@@]1(OC(=O)CC)[C@@H](C)C[C@H]2[C@@H]3CCC4=CC(=O)C=C[C@]4(C)[C@@]3(Cl)[C@@H](O)C[C@@]21C [CI019, Beclomethasone dipropionate]
- minimal effective concentration [1]: 2.5 µM
- minimal effective concentration [2]: 0.625 µM

Compound: CC1(C)O[C@@H]2C[C@H]3[C@@H]4CCC5=CC(=O)C=C[C@]5(C)[C@H]4[C@@H](O)C[C@]3(C)[C@]2(C(=O)CO)O1 [CI020, Desonide]
- minimal effective concentration [1]: 2.5 µM
- minimal effective concentration [2]: 0.625 µM

Compound: CC1(C)O[C@@H]2C[C@H]3[C@@H]4C[C@H](F)C5=CC(=O)C=C[C@]5(C)[C@@]4(F)[C@@H](O)C[C@]3(C)[C@]2(C(=O)CO)O1 [CI021, Fluocinolone Acetonide]
- minimal effective concentration [1]: 2.5 µM
- minimal effective concentration [2]: 0.625 µM

Compound: CCC(=O)O[C@]1(C(=O)SCF)[C@H](C)C[C@H]2[C@@H]3C[C@H](F)C4=CC(=O)C=C[C@]4(C)[C@@]3(F)[C@@H](O)C[C@@]21C [CI022, Fluticasone propionate]
- minimal effective concentration [1]: 2.5 µM
- minimal effective concentration [2]: 0.625 µM

Compound: C[C@@H]1C[C@H]2[C@@H]3CCC4=CC(=O)C=C[C@]4(C)[C@@]3(Cl)[C@@H](O)C[C@]2(C)[C@@]1(OC(=O)c1ccco1)C(=O)CCl [CI023, Mometasone Furoate]
- minimal effective concentration [1]: 2.5 µM
- minimal effective concentration [2]: 0.625 µM

Compound: C[C@]12C[C@H](O)[C@H]3[C@@H](CCC4=CC(=O)CC[C@@]43C)[C@@H]1CC[C@@H]2C(=O)CO [CI028, Corticosterone]
- minimal effective concentration [1]: 2.5 µM
- minimal effective concentration [2]: 0.625 µM

Compound: C#C[C@]1(OC(C)=O)CC[C@H]2[C@@H]3CCC4=C[C@@H](OC(C)=O)CC[C@@H]4[C@H]3CC[C@@]21C [CI030, Ethynodiol diacetate]
- minimal effective concentration [1]: 5 µM
- minimal effective concentration [2]: > 10 µM
- cell density reduction (in words): failed to elicit vacuolation or reduce cell density
- vacuolation (in words): failed to elicit vacuolation

Compound: CC(=O)O[C@]1(C(C)=O)CC[C@H]2[C@@H]3C[C@H](C)C4=CC(=O)CC[C@]4(C)[C@H]3CC[C@@]21C [CI031, Medroxyprogesterone acetate]
- minimal effective concentration [3]: 2.5 µM
- minimal effective concentration [4]: 2.5 µM

Compound: C#C[C@]1(O)CC[C@H]2[C@@H]3CCC4=CC(=O)CC[C@]4(C)[C@H]3CC[C@@]21C [CI032, Ethisterone]
- minimal effective concentration [1]: 10 µM
- minimal effective concentration [2]: > 10 µM
- cell density reduction (in words): failed to elicit vacuolation or reduce cell density
- vacuolation (in words): failed to elicit vacuolation

Compound: C[C@]12CCC3=C4CCC(=O)C=C4CC[C@H]3[C@@H]1CC[C@@]2(O)CC#N [CI033, Dienogest]
- minimal effective concentration [1]: 10 µM
- minimal effective concentration [2]: > 10 µM
- cell density reduction (in words): failed to elicit vacuolation or reduce cell density
- vacuolation (in words): failed to elicit vacuolation

Compound: C[C@@H]1C[C@H]2[C@@H]3CCC4=CC(=O)C=C[C@]4(C)[C@@]3(F)[C@@H](O)C[C@]2(C)[C@@]1(O)C(=O)COP(=O)([O-])[O-].[Na+].[Na+] [CI039, Dexamethasone 21-phosphate disodium salt]
- minimal effective concentration [3]: 2.5 µM
- minimal effective concentration [4]: 0.625 µM

Compound: CC1(C)O[C@@H]2C[C@H]3[C@@H]4CCC5=CC(=O)C=C[C@]5(C)[C@@]4(F)[C@@H](O)C[C@]3(C)[C@]2(C(=O)CO)O1 [CI041, Triamcinolone acetonide]
- minimal effective concentration [1]: 2.5 µM
- minimal effective concentration [2]: 0.625 µM

Compound: C[C@]12C=CC(=O)C=C1CC[C@@H]1[C@@H]2C(=O)C[C@@]2(C)[C@H]1CC[C@]2(O)C(=O)CO [CI042, Prednisone]
- minimal effective concentration [1]: 2.5 µM
- minimal effective concentration [2]: > 10 µM

Compound: CC(=O)[C@@]1(O)CC[C@H]2[C@@H]3C[C@H](C)C4=CC(=O)C=C[C@]4(C)[C@@]3(F)[C@@H](O)C[C@@]21C [CI043, Fluorometholone]
- minimal effective concentration [1]: 2.5 µM
- minimal effective concentration [2]: 0.625 µM

Compound: C[C@]12C=CC(=O)C=C1CC[C@H]1[C@@H]3C[C@@H](O)[C@](O)(C(=O)CO)[C@@]3(C)C[C@H](O)[C@@]12F [CI047, Triamcinolone]
- minimal effective concentration [1]: 2.5 µM
- minimal effective concentration [2]: 0.625 µM
